From patent publication US7879826B2, “Derivatives of [2-(8,9-dioxo-2,6-diazabicyclo[5.2.0]non-1(7)-en-2-yl)alkyl]phosphonic acid and methods of making them” (Wyeth LLC, priority 2004, dated 2011) come the findings set out here.

Series [1] relates to PGE2-induced thermal hypersensitivity. The series is described as follows: Prostaglandin E2-induced thermal hypersensitivity (warm-water tail withdrawal). Format: in vivo, Spraque-Dawley rats. As to conditions: rat, 10 mg/kg p.o., single dose; assessed 30 min after PGE2 injection. The method, then: Individually housed Spraque-Dawley rats had free access to rat chow and water. A 12-h light/12-h dark cycle was in effect (lights on from 6:00 am to 6:00 pm). Animal maintenance and research were conducted in accordance with the guidelines provided by the National Institutes of Health Committee on Laboratory Animal Resources. These subjects were used in the tests below.
The terminal 10 cm of the tail (rat) was placed into a thermos bottle containing water warmed to 38, 42, 46, 50 or 54° C. The latency in seconds for the animal to remove the tail from the water was used as a measure of nociception. […]
The ability of the compounds to reverse PGE2-induced thermal hypersensitivity was assessed using a single dose time-course procedure. […] sensitivity was assessed 30 min after PGE2 injection.
Data Analysis—The temperature that produced a half-maximal increase in the tail-withdrawal latency (i.e., T10) was calculated from each temperature-effect curve. The T10 was determined by interpolation from a line drawn between the point above and the point below 10 sec on the temperature-effect curve. […] Reversal of thermal hypersensitivity was defined as a return to baseline of the temperature-effect curve and the T10 value and was calculated according to the following equation: […]

Consider `CCOC(=O)c1cccc(OP(=O)(CCN2CCCNc3c2c(=O)c3=O)Oc2cccc(C(=O)OCC)c2)c1` [Example 1, Diethyl 3,3′-[({2-[8,9-dioxo-2,6-diazabicyclo[5.2.0]non-1(7)-en-2-yl]ethyl}phosphoryl)bis(oxy)]dibenzoate], for which the melting point fell in the range of 116 to 117 °C. The “reversing PGE2-induced thermal hypersensitivity (% MPE)” value in series [1] was determined as 40%.
